Data on eight compounds can be found in patent US8518957B2, “Methanocarba adenosine derivatives, pharmaceutical compositions, and method of reducing intraocular pressure” (The United States of America, as represented by the …, priority 2009, dated 2013).

By Ki is commonly meant the dissociation constant of the complex between target and ligand, obtained from inhibition or displacement. Usually inhibition stands for the relative decrease from the control value, in per cent.

The target of one assay is T1, human A3AR (Homo sapiens, UniProt P0DMS8).
T1 construct: expressed in transfected cells
T1 sequence (P0DMS8 1-318): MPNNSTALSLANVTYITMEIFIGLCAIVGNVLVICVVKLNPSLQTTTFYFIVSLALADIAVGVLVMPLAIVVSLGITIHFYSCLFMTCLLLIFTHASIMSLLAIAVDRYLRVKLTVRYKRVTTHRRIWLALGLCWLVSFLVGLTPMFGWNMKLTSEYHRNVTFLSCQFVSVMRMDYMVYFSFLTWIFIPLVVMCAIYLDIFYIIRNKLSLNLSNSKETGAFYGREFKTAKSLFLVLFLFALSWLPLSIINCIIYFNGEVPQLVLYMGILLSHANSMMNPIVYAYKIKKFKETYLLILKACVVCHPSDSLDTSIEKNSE
In words: Radioligand binding at human A3 AR ([125I]I-AB-MECA, membranes of CHO cells). The method, then:
Test compounds were prepared as 5 mM stock solutions in DMSO and stored frozen at −20° C.
(§1) CHO cells stably expressing the recombinant hA1 and hA3Rs, and HEK-293 cells stably expressing the hA2AAR were cultured in Dulbecco's modified Eagle medium (DMEM) and F12 (1:1) supplemented with 10% fetal bovine serum, 100 units/mL penicillin, 100 μg/mL streptomycin, and […] glutamine. In addition, 800 μg/mL geneticin was added to the A2A media, while 500 μg/mL hygromycin was added to the A1 and A3 media. After harvesting, cells were homogenized and suspended in PBS. Cells were then centrifuged at 240 g for 5 min, and the pellet was resuspended in 50 mM Tris-HCl buffer (pH 7.5) containing 10 mM MgCl2. The suspension was homogenized and was then ultra-centrifuged at 14,330 g for 30 min at 4° C. The resultant pellets were resuspended in Tris buffer, incubated with adenosine deaminase (3 units/mL) for 30 min at 37° C. The suspension was homogenized with an electric homogenizer for 10 sec, pipetted into 1 mL vials and then stored at −80° C. until the binding experiments were conducted. The protein concentration was measured using the BCA Protein Assay Kit from Pierce Biotechnology, Inc. (Rockford, Ill.).
Into each tube in the binding assay was added 50 μL of increasing concentrations of the test ligand in Tris-HCl buffer (50 mM, pH 7.5) containing 10 mM MgCl2, 50 μl, of the appropriate agonist radioligand, and finally 100 μL of membrane suspension. […] For the A2AAR (20 μg/tube) the radioligand used was [^3H]37 (10 nM). […] Nonspecific binding was determined using a final concentration of 10 μM unlabeled 36 diluted with the buffer. The mixtures were incubated at 25° C. for 60 min in a shaking water bath. Binding reactions were terminated by filtration through Brandel GF/B filters under a reduced pressure using a M-24 cell harvester (Brandel, Gaithersburg, Md.). Filters were washed three times with 3 mL of 50 mM ice-cold Tris-HCl buffer (pH 7.5). […] Filters for A3AR binding were counted using a Packard Cobra II γ-counter. The Ki values were determined using GraphPad Prism for all assays.
Test compounds were prepared as 5-mM stock solutions in DMSO and stored frozen at −20° C.
(§2) Chinese hamster ovary (CHO) cells were generated by stably expressing the recombinant hA1 and hA3 and human embryonic kidney (HEK) 293 cells stably expressing the hA2AAR in DMEM and F12 (1:1) supplemented with 10% fetal bovine serum, 100 units/mL penicillin, 100 μg/mL streptomycin, and 2 μmol/mL glutamine. 800 μg/mL Geneticin were added to the A2A media and 500 μg/mL hygromycin to the A1 and A3 media. After harvesting the cells, they were homogenized with an electric homogenizer for 10 sec, pipetted them into 1-mL vials, and then stored them at −80° C. until the binding experiments were conducted. The protein concentration was measured with a BCA Protein Assay Kit from Pierce Biotechnology (Rockford, Ill.).
Each tube in the binding assay contained 50 μL of increasing concentrations of the test ligand in Tris-HCl buffer (50 mM, pH 7.5) containing 10 mM MgCl2, 50 μL of the appropriate agonist radioligand, and 100 μL membrane suspension, added sequentially. […] For the A2AAR (20 μg/tube), the radioligand [^3H]CGS21680 was used (−10 nM). […] The mixtures were incubated at 25° C. for 60 min in a shaking water bath. The binding reactions were terminated by filtration through Brandel GF/B filters under a reduced pressure with a M-24 cell harvester (Brandel, Gaithersburg, Md.). Filters were washed three times with 3 mL 50-mM ice-cold Tris-HCl buffer (pH 7.5). […] The filters were counted for A3AR binding with a Packard Cobra II γ-counter (PerkinElmer). The Ki values were determined with GraphPad Prism for all assays.

The next assay addresses T2, human A1 AR (Homo sapiens, UniProt P30542).
T2 construct: expressed in transfected cells
T2 sequence (P30542 1-326): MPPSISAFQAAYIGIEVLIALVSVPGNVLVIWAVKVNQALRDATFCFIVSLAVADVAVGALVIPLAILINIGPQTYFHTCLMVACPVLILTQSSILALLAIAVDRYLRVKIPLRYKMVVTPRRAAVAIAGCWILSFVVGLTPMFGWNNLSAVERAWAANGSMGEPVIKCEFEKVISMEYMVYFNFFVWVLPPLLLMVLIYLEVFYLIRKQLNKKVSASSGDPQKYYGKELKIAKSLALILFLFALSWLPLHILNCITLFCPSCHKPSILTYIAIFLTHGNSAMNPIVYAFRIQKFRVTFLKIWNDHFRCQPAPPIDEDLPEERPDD
The experiment in a line: Radioligand binding at human A1 AR ([3H]NECA, membranes of CHO cells). The settings on record: for Ki: Example 7, agonist radioligand [3H]45, read-out: AR Affinity Ki, nM, A1. The method, then: (§3) [^3H](2-[p-(2-Carboxyethyl)phenyl-ethylamino]-5′-N-ethylcarboxamido-adenosine) (37, [^3H]CGS21680, 40.5 Ci/mmol) and [^125I]N^6-(4-amino-3-iodobenzyl)adenosine-5′-N-methyluronamide (38, [^125I]I-AB-MECA, 2200 Ci/mmol) were purchased from Perkin-Elmer Life and Analytical Science (Boston, Mass.). Test compounds were prepared as 5 mM stock solutions in DMSO and stored frozen at −20° C.
as §1
(§4) Into each tube in the binding assay was added 50 μL of increasing concentrations of the test ligand in Tris-HCl buffer (50 mM, pH 7.5) containing 10 mM MgCl2, 50 μl, of the appropriate agonist radioligand, and finally 100 μL of membrane suspension. For the A1AR (22 μg of protein/tube) the radioligand used was [^3H]36 (final concentration of 3.5 nM). For the A2AAR (20 μg/tube) the radioligand used was [^3H]37 (10 nM). For the A3AR (21 μg/tube) the radioligand used was [^125I]38 (0.34 nM). Nonspecific binding was determined using a final concentration of 10 μM unlabeled 36 diluted with the buffer. The mixtures were incubated at 25° C. for 60 min in a shaking water bath. Binding reactions were terminated by filtration through Brandel GF/B filters under a reduced pressure using a M-24 cell harvester (Brandel, Gaithersburg, Md.). Filters were washed three times with 3 mL of 50 mM ice-cold Tris-HCl buffer (pH 7.5). Filters for A1 and A2AAR binding were placed in scintillation vials containing 5 mL of Hydrofluor scintillation buffer and counted using a Perkin Elmer Liquid Scintillation Analyzer (Tri-Carb 2810TR). Filters for A3AR binding were counted using a Packard Cobra II γ-counter. The Ki values were determined using GraphPad Prism for all assays.
(§5) [^3H](2-[p-(2-carboxyethyl)phenyl-ethylamino]-5′-N-ethylcarboxamido-adenosine) ([^3H]CGS21680, 40.5 Ci/mmol) and [^125I]N^6-(4-amino-3-iodobenzyl)adenosine-5′-N-methyluronamide ([^125I]I-AB-MECA, 2200 Ci/mmol) were purchased from PerkinElmer. Test compounds were prepared as 5-mM stock solutions in DMSO and stored frozen at −20° C.
as §2, with “Ill.). […]” for “Ill.).”

For another assay, the target named is T3, hA2AAR (Homo sapiens, UniProt P29274).
T3 construct: expressed in transfected cells
T3 sequence (P29274 whole entry): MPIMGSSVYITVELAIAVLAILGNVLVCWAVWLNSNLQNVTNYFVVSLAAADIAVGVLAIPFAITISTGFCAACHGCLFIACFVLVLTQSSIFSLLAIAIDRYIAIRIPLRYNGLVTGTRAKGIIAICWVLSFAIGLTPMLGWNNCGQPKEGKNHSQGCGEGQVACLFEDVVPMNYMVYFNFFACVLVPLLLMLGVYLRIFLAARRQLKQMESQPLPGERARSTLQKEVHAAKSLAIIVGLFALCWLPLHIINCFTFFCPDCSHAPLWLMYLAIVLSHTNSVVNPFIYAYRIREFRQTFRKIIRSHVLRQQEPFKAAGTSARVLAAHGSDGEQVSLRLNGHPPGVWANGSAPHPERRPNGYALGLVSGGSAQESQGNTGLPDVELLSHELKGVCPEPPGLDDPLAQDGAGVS
In words: Radioligand binding at human A2A AR ([3H]CGS21680, membranes of HEK-293 cells). The method, then:
as §3, §1, §4, §5
as §2, with “Ill.). […]” for “Ill.).”

Setting [1] is: Example 7, agonist radioligand [125I]47, read-out: AR Affinity Ki, nM, A3.

Like-named read-outs stand apart in the source and are kept apart here.

On to `CNC(=O)[C@@]12C[C@@H]1[C@@H](n1cnc3c(NCc4cn(C56CC7CC(CC(C7)C5)C6)nn4)nc(Cl)nc31)[C@H](O)[C@@H]2O` [Compound 220, (1S,2R,3S,4R,5S)-4-(2-Chloro-6-((1-(adamantyl)-1H-1,2,3-triazol-4-yl)methylamino)-9H-purin-9-yl)-2,3-dihydroxy-N-methylbicyclo[3.1.0]hexane-1-carboxamide], for which the Ki on human A3AR (setting [1]) came out at 38.1 ± 14.4 nM. The inhibition at 10 µM on human A1 AR was 38.4%; on hA2AAR, 4.9%.
For `C#CCCCCC#Cc1cccc(CNc2nc(Cl)nc3c2ncn3[C@H]2[C@H](O)[C@H](O)[C@]3(C(=O)NC)C[C@H]23)c1` [Compound 201, (1S,2R,3S,4R,5S)-4-[2-Chloro-6-{3-(1,7-octadiynyl)benzylamino}-9H-purin-9-yl]-2,3-dihydroxybicyclo[3.1.0]hexane-1-carboxylic acid N-methylamide], the values for the Ki at human A3AR (setting [1]) and at human A1 AR were 113 ± 24 nM and 1490 ± 230 nM, respectively. Besides, the inhibition at 10 µM on hA2AAR was determined as 19.7%.
In the case of `O=[N+]([O-])c1cc(-n2cc(CCCC#Cc3cccc(CNc4nc(Cl)nc5c4ncn5[C@H]4[C@H](O)[C@H](O)[C@@H]5C[C@@H]54)c3)nn2)ccc1F` [Compound 214, (1R,2R,3S,4R,5S)-4-(2-Chloro-6-(3-(5-(1-(4-fluoro-3-nitrophenyl)-1H-1,2,3-triazol-4-yl)pent-1-ynyl)benzylamino)-9H-purin-9-yl)-bicyclo[3.1.0]hexane-2,3-diol], the Ki at human A3AR (setting [1]) worked out at 897 ± 20 nM. In addition, the figures for the inhibition at 10 µM on human A1 AR and at hA2AAR were 11% and 16.7%, respectively.
On to `C#CCCCC#Cc1cccc(CNc2nc(Cl)nc3c2ncn3[C@H]2[C@H](O)[C@H](O)[C@]3(C(=O)NC)C[C@H]23)c1` [Compound 200, (1S,2R,3S,4R,5S)-4-[2-Chloro-6-{3-(1,6-heptadiynylbenzylamino)}-9H-purin—9-yl]-2,3-dihydroxybicyclo[3.1.0]hexane-1-carboxylic acid N-methylamide], for which the Ki at human A3AR (setting [1]) was found to be 8.1 ± 3.1 nM; on human A1 AR, 104 ± 24 nM; at hA2AAR (Example 7, agonist radioligand [3H]46, HEK293, read-out: AR Affinity Ki, nM, A2A) it was 4950 ± 960 nM.
As to `C#CCNc1nc(Cl)nc2c1ncn2[C@H]1[C@H](O)[C@H](O)[C@@H]2C[C@@H]21` [Compound 222, (1R,2R,3S,4R,5S)-4-(2-Chloro-6-(prop-2-ynylamino)-9H-purin-9-yl) bicycle[3.1.0]hexane-2,3-diol], the Ki is 302 ± 26 nM at human A3AR (setting [1]) and 5870 ± 830 nM at human A1 AR. Besides, on hA2AAR, the inhibition at 10 µM worked out at 28.3%.
With `CNC(=O)[C@@]12C[C@@H]1[C@@H](n1cnc3c(NCc4cn(-c5ccc(F)c([N+](=O)[O-])c5)nn4)nc(Cl)nc31)[C@H](O)[C@@H]2O` [Compound 219a, (1S,2R,3S,4R,5S)-4-(2-Chloro-6-((1-(4-fluoro-3-nitrophenyl)-1H-1,2,3-triazol-4-yl)methylamino)-9H-purin-9-yl)-2,3-dihydroxy-N-methylbicyclo[3.1.0]hexane-1-carboxamide], the Ki on human A3AR (setting [1]) came out at 9.1 ± 1.9 nM. In addition, the inhibition at 10 µM at human A1 AR was 38%; on hA2AAR it was 19.3%.
For the compound `CNC(=O)[C@@]12C[C@@H]1[C@@H](n1cnc3c(NCc4cccc(C#CCCCCc5cn(-c6ccc(F)c([N+](=O)[O-])c6)nn5)c4)nc(Cl)nc31)[C@H](O)[C@@H]2O` [Compound 204, (1S,2R,3S,4R,5S)-4-(2-Chloro-6-(3-(6-(1-(4-fluoro-3-nitrophenyl)-1H-1,2,3-triazol-4-yl)hex-1-ynyl)benzylamino)-9H-purin-9-yl)-2,3-dihydroxybicyclo[3.1.0]hexane-1-carboxylic acid-N-methylamide], the Ki was 71.7 ± 54 nM at human A3AR (setting [1]) and 2420 ± 230 nM at human A1 AR. This compound came in with an inhibition at 10 µM at hA2AAR of 28.6%.
As for `CNC(=O)[C@@]12C[C@@H]1[C@@H](n1cnc3c(NCc4cccc(Cl)c4)nc(C#CCCCc4cn(-c5ccc(F)c([N+](=O)[O-])c5)nn4)nc31)[C@H](O)[C@@H]2O` [Compound 10, (1S,2R,3S,4R,5S)-4′-(6-(3-Chlorobenzylamino)-2-(6-(1-(4-fluoro-3-nitrophenyl)-1H-1,2,3-triazol-4-yl)pent-1-ynyl)-9H-purin-9-yl)-2′,3′-dihydroxybicyclo[3.1.0]hexane-1′-carboxylic acid N-methylamide], the Ki at human A3AR ([125I]38, CHO cells, read-out: Affinity (Ki, nM), A3) amounted to 26 ± 8.2 nM. For the same compound, the “% inhibition, A1” value on human A1 AR (inhibition of radioligand binding at 10 μM, [3H]36, CHO cells) is listed as “(10 ± 3%)”. Also, at hA2AAR (inhibition of radioligand binding at 10 μM, [3H]37, HEK293 cells), the “% inhibition, A2A” value is “(39 ± 4%)”.
